The nature of assay [1]: Inhibition of Legionella pneumophila carbonic anhydrase 2 preincubated for 15 mins by stopped-flow CO2 hydrase assay.
Assay [2] is described as follows: Inhibition of Legionella pneumophila carbonic anhydrase 1 preincubated for 15 mins by stopped-flow CO2 hydrase assay.

As to `CC(=O)Nc1nnc(S(N)(=O)=O)s1` [ACETAZOLAMIDE], the Ki in assay [1] is 0.036 µM; in assay [2] it was 0.095 µM. For `CCN(CC)C(=S)S` [DITIOCARB SODIUM] the same measures were 2 µM and 6 µM. As for `O=[As](O)(O)c1ccccc1` [PHENYLARSONIC ACID], the Ki in assay [1] came out at 8 µM; in assay [2], 84 µM.

As to `OB(O)c1ccccc1` [PHENYLBORONIC ACID], the Ki in assay [1] amounted to 6 µM; in assay [2], 65 µM.

With `[N-]=[N+]=[N-]` [SODIUM AZIDE], the Ki in assay [1] is 450 µM; in assay [2] it was 77 µM. For `O=C([O-])O.[Na+]` [SODIUM BICARBONATE] the same measures were 6600 µM and 3500 µM. On to `O=S([O-])O.[Na+]` [SODIUM BISULFITE], for which the Ki in assay [1] worked out at 7200 µM; in assay [2], 6600 µM. Taken in the same sequence, the figures for `[Br-].[Na+]` [SODIUM BROMIDE] were 8000 µM and 650 µM. With `O=C([O-])[O-].[Na+].[Na+]` [SODIUM CARBONATE], the Ki amounted to 4800 µM in assay [1] and 4700 µM in assay [2]. For `S=C(S)S` [SODIUM CARBONOTRITHIOATE] the same measures were 620 µM and 530 µM. Taken in the same sequence, the figures for `[Cl-].[Na+]` [SODIUM CHLORIDE] were 810 µM and 790 µM.

Take `N#CO` [SODIUM CYANATE]: the Ki was determined as 960 µM in assay [1] and 660 µM in assay [2]. `[F-].[Na+]` [SODIUM FLUORIDE]: the Ki in assay [1] is 770 µM; in assay [2] it was 910 µM. Taken in the same sequence, the figures for `S` [SODIUM HYDROSULFIDE] were 510 µM and 76 µM. For `O=S(=O)(O)NS(=O)(=O)O` [SODIUM IMINODISULFONATE], the figures for the inhibition constant Ki in assay [1] and in assay [2] were 590 µM and 1170 µM, respectively. `[I-].[Na+]` [SODIUM IODIDE]: the Ki in assay [1] was found to be 59100 µM; in assay [2] it was 320 µM. As to `N=C=[Se]` [SODIUM ISOSELENOCYANATE], the Ki worked out at 660 µM in assay [1] and 980 µM in assay [2]. For `N=C=S` [SODIUM ISOTHIOCYANATE] the same measures were 880 µM and 520 µM. Consider `O=[N+]([O-])[O-].[Na+]` [SODIUM NITRATE], for which the Ki in assay [1] is 30100 µM; in assay [2], 7600 µM. Taken in the same sequence, the figures for `O=NO` [SODIUM NITRITE] were 5800 µM and 7900 µM.

As for `[O-][Cl+3]([O-])([O-])O` [SODIUM PERCHLORATE], the inhibition constant (Ki) in assay [1] and in assay [2] was greater than 200000 µM each time. With `O=S(=O)(O)OOS(=O)(=O)O` [SODIUM PERSULFATE], the Ki in assay [1] amounted to 570 µM; in assay [2], 850 µM.

In the case of `O=P(O)(O)OP(=O)(O)O` [SODIUM PYROPHOSPHATE], the Ki in assay [1] stood at 830 µM; in assay [2] it was 940 µM. Regarding `O=[Se](=O)(O)O` [SODIUM SELENATE], the Ki in assay [1] came out at 660 µM; in assay [2], 7300 µM. For `O=S(=O)([O-])[O-].[Na+].[Na+]` [SODIUM SULFATE ANHYDROUS] the same measures were 96500 µM and 77900 µM. Taken in the same sequence, the figures for `O=[Te](=O)(O)O` [SODIUM TELLURATE] were 290 µM and 240 µM.

As for `O=BOB(O)OB(O)OB=O` [SODIUM TETRABORATE], the Ki turned out to be 550 µM in assay [1] and 600 µM in assay [2]. With `F[B-](F)(F)F.[Na+]` [SODIUM TETRAFLUOROBORATE], the Ki in assay [1] and in assay [2] was greater than 200000 µM each time. For `NS(=O)(=O)O` [SULFAMATE], the Ki came out at 13 µM in assay [1] and 76 µM in assay [2].

`NS(N)(=O)=O` [SULFAMIDE] came in with a Ki in assay [2] of 94 µM.

The record behind these values is ChEMBL document CHEMBL3112489 (Bioorg Med Chem Lett, 2014).
